Patent publication US20080249028A1, “Thyrotropin-Releasing Hormone Analogs and Method of Use” (Roger Williams Hospital, priority 2005, published 2008)

How the values were obtained:
[1] = in vivo; cited from earlier work
[2] = system: rat; conditions: injection of TRH into the rat brain; cited from earlier work
[3] = system: pancreatic beta cell function; test: Beta cell function evaluation after pancreatic damage; type: in vivo, rat; conditions: at 2 weeks after pancreatic damage
Protocol: (§1) Male Sprague-Dawley rats (S.D. 180 g) were used in the experiments described below. The animals lived in individual metabolism cages with free access to food and water, while food and body weight were monitored daily. Peripheral blood samples (approximately 10 μl) were obtained from the tail vein of the animals. The blood glucose levels were measured by using Accu-Check Blood Glucose Meter (Roche Diagnosetics Corporation, IN). Beta cell function was evaluated once every two days over a 2-week period by an individual unaware of the treatment group. Animals were evaluated separately for blood glucose level, food intake and body weight. The endpoint check was pancreatic insulin content and pancreatic beta cell number.

[4] = system: Sprague-Dawley rats; test: Blood glucose level in rats given compound alone (no STZ); type: in vivo, rat; conditions: Table 1, rats, TRH alone (no STZ)
Protocol: as §1
(§2) The figures shown in the tables are blood glucose levels (mg/dL; i.e., milligrams of glucose per deciliter of blood).

[5] = system: STZ-induced hyperglycemic rats; test: Effect on STZ-induced hyperglycemia in rats (blood glucose level); type: in vivo, rat; conditions: for blood glucose level: Table 1, rats, STZ + compound i.p.
Protocol: as §1
Streptozotocin (STZ) was used to chemically induce damage in pancreatic function in order to create a hyperglycemic state in the animals. Eight-week old male Sprague-Dawley rats (200.00 g±10 g) were injected with STZ by intraperitoneal (i.p.) (65 mg/kg body weight (BW)) to create hyperglycemic animals (24 to 48 hours). Blood glucose levels were monitored daily. Onset of hyperglycemia occurred usually about 24 to 48 hours after STZ administration.
[…] the seventh day or on the third day after STZ administration, which allowed for examination of the TRH/TRH analog treatment and the degree of pancreatic damage in the diabetic animal. Again, food intake, body weight and blood glucose levels of each of the animals were monitored. When hyperglycemia was determined to be reversed by TRH/TRH analog, the animal was sacrificed. Blood samples were collected for insulin assay and the pancreas and muscles were collected for further pathological and physiological tests.
as §2

[6] = system: STZ-induced hyperglycemic rats; test: Serum insulin assay after TRH treatment of STZ rats; type: in vivo, rat; conditions: following TRH vs. control and STZ groups
Protocol: (§3) Partial pancreatic tissue was extracted with 1 N glacial acetic acid for insulin assay by ELISA. Four animals were used in each group. Each pancreas was placed in head (central) to tail (peripheral) orientation and immediately snap frozen and kept at −80° C. This orientation of the tissue provided an opportunity for sectioning of equal surface areas when cutting the frozen tissue. In this manner, the pancreas sections included every portion of the pancreas in parallel, while avoiding variations caused by sectioning from different areas. The HE histological staining was performed on serial sections (5 um thick) and islets were counted in 10 slides for each sample and standardized by dividing the total area (islets/cm^2).
A group of animals were given a single dose i.p. of 20 μg/kg BW or […] of TRH or TRH analogs on the seventh day or on the third day after STZ administration, which allowed for examination of the TRH/TRH analog treatment and the degree of pancreatic damage in the diabetic animal. Again, food intake, body weight and blood glucose levels of each of the animals were monitored. When hyperglycemia was determined to be reversed by TRH/TRH analog, the animal was sacrificed. Blood samples were collected for insulin assay and the pancreas and muscles were collected for further pathological and physiological tests.

[7] = system: pancreatic islets; test: Pancreatic islet count (HE histological staining); type: in vivo, rat; conditions: by activation of the TRH receptor
Protocol: as §3

NC(=O)[C@@H]1CCCN1C(=O)[C@H](Cc1cnc[nH]1)NC(=O)[C@@H]1CCC(=O)N1 [TRH, L-pyroglutamyl-L-histidyl-L-prolineamide, reference compound]
plasma half-life [1]: 4 to 5 min
blood glucose levels [2]: reduce blood glucose levels
pancreatic endocrine outcome [3]: improved
blood glucose level ([4]; Day 1): 101.5 mg/dL
blood glucose level ([4]; Day 2): 125 mg/dL
blood glucose level ([4]; Day 4): 125 mg/dL
blood glucose level ([4]; Day 9): 96 mg/dL
blood glucose level ([4]; Day 15): 82.5 mg/dL
blood glucose level ([4]; Day 22): 89 mg/dL
blood glucose level ([4]; Day 29): 74.5 mg/dL
blood glucose level ([4]; Day 39): 80 mg/dL
blood glucose level ([4]; Day 43): 90.5 mg/dL
blood glucose level ([4]; Day 50): 93 mg/dL
blood glucose level ([4]; Day 53): 78 mg/dL
blood glucose level ([4]; Day 56): 75 mg/dL
blood glucose level ([4]; Day 60): 67 mg/dL
blood glucose level ([4]; Day 64): 85 mg/dL
hyperglycemia ([5]; TRH administration on day 3 following STZ injection, after 6 days): reversed the hyperglycemia
blood glucose level ([5]; Day 1): 107.8 mg/dL
blood glucose level ([5]; Day 2): 321.4 mg/dL
blood glucose level ([5]; Day 4): 448.8 mg/dL
blood glucose level ([5]; Day 9): 191.2 mg/dL
blood glucose level ([5]; Day 15): 182.6 mg/dL
blood glucose level ([5]; Day 22): 380.2 mg/dL
blood glucose level ([5]; Day 29): 337 mg/dL
blood glucose level ([5]; Day 39): 283.4 mg/dL
blood glucose level ([5]; Day 43): 220.4 mg/dL
blood glucose level ([5]; Day 50): 182 mg/dL
blood glucose level ([5]; Day 53): 151 mg/dL
blood glucose level ([5]; Day 56): 139 mg/dL
blood glucose level ([5]; Day 60): 180 mg/dL
blood glucose level ([5]; Day 64): 156 mg/dL
glucose levels over time ([5]; rat treated with TRH after STZ-induced hyperglycemia, over a two month time period): continually decreased
STZ induced hyperglycemia ([5]; rats, after seven days of TRH and STZ treatment): normalized
levels of insulin in the serum [6]: increased
number of pancreatic islets [7]: increases
